Where “and” joins values, the source holds several entries; their conditions need not be identical. Equal values may be shown once.
System: NCI-H1876 complex spheroid growth, % test/control
Assay: Anticancer human tumor NCI-H1876 cell line growth inhibition [Asc];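 further: compound exposure lasted 7 days starting three days after seeding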;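 on viability, T/C: 100% = DMSO vehicle control wells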
Settings: for viability, T/C: stronger effect = lower value
In short: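 Complex spheroids combining tumor cells with HUVEC endothelial cells and human MSCs, at 37 degrees C, 5% CO2; agents tested alone or combined, half-log dilutions from at or near clinical Cmax, or 10 microM if Cmax unknown.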

Q: For `CNC(C)C(=O)NC1CN(S(=O)(=O)c2cccc(S(=O)(=O)N3CCC4CCC(C(=O)NC(c5ccccc5)c5ccccc5)N4C(=O)C(NC(=O)C(C)NC)C3)c2)CCC2CCC(C(=O)NC(c3ccccc3)c3ccccc3)N2C1=O` (centres undefined) + Cc1c(S(C)(=O)=O)c(-c2cc(F)cc(N3CCN(c4ccc(NS(=O)(=O)c5ccc(NC(CCN6CCC(C(=O)OCCCP(=O)(O)O)CC6)CSc6ccccc6)c(S(=O)(=O)C(F)(F)F)c5)cc4)CC3)c2)c(-c2ccc(Cl)cc2)n1C(C)C, which IC50 (curve of first compound, second compound 0.0316 µM) is on record?
A: Its IC50 is > 1000 nM.

Q: What about the IC50 (curve of first compound, second compound 0.1 µM) of the same compound?
A: Its IC50 is > 1000 nM.

Q: And the IC50 (curve of first compound, second compound 0.316 µM)?
A: Its IC50 is > 1000 nM.

Q: What about the IC50 (curve of first compound, second compound 1 µM) of the same compound?
A: Its IC50 is > 1000 nM.

Q: And the IC50 (curve of first compound, second compound 3.16 µM)?
A: The IC50 was > 1000 nM.

Q: What about the IC50 (curve of first compound, second compound 10 µM) of the same compound?
A: The IC50 was > 1000 nM.

Q: What about the viability, T/C (second compound 0.0316 µM, first compound 0.00316 µM) of the same compound?
A: Its viability, T/C is 95.1%.

Q: What about the viability, T/C (second compound 0.0316 µM, first compound 0.01 µM) of the same compound?
A: The viability, T/C was 96.4%.

Q: And the viability, T/C (second compound 0.0316 µM, first compound 0.0316 µM)?
A: The viability, T/C was 98%.

Q: What about the viability, T/C (second compound 0.0316 µM, first compound 0.1 µM) of the same compound?
A: The viability, T/C was 97.8%.

Q: What about the viability, T/C (second compound 0.0316 µM, first compound 0.316 µM) of the same compound?
A: The viability, T/C was 103%.

Q: What about the viability, T/C (second compound 0.0316 µM, first compound 1 µM) of the same compound?
A: The viability, T/C was 103%.

Q: And the viability, T/C (second compound 0.1 µM, first compound 0.00316 µM)?
A: The viability, T/C was 91.3%.

Q: And the viability, T/C (second compound 0.1 µM, first compound 0.01 µM)?
A: Its viability, T/C is 96.2%.

Q: What about the viability, T/C (second compound 0.1 µM, first compound 0.0316 µM) of the same compound?
A: Its viability, T/C is 95%.

Q: And the viability, T/C (second compound 0.1 µM, first compound 0.1 µM)?
A: The viability, T/C was 98.8%.

Q: What about the viability, T/C (second compound 0.1 µM, first compound 0.316 µM) of the same compound?
A: The viability, T/C was 105%.

Q: And the viability, T/C (second compound 0.1 µM, first compound 1 µM)?
A: Its viability, T/C is 98.7%.

Q: What about the viability, T/C (second compound 0.316 µM, first compound 0.00316 µM) of the same compound?
A: The viability, T/C was 101%.

Q: And the viability, T/C (second compound 0.316 µM, first compound 0.01 µM)?
A: The viability, T/C was 102%.

Q: And the viability, T/C (second compound 0.316 µM, first compound 0.0316 µM)?
A: The viability, T/C was 97.2%.

Q: What about the viability, T/C (second compound 0.316 µM, first compound 0.1 µM) of the same compound?
A: Its viability, T/C is 97.3%.

Q: What about the viability, T/C (second compound 0.316 µM, first compound 0.316 µM) of the same compound?
A: The viability, T/C was 103%.

Q: And the viability, T/C (second compound 0.316 µM, first compound 1 µM)?
A: The viability, T/C was 104%.

Q: What about the viability, T/C (second compound 1 µM, first compound 0.00316 µM) of the same compound?
A: Its viability, T/C is 94%.

Q: And the viability, T/C (second compound 1 µM, first compound 0.01 µM)?
A: Its viability, T/C is 91.6%.

Q: What about the viability, T/C (second compound 1 µM, first compound 0.0316 µM) of the same compound?
A: Its viability, T/C is 91.6%.

Q: What about the viability, T/C (second compound 1 µM, first compound 0.1 µM) of the same compound?
A: Its viability, T/C is 100%.

Q: And the viability, T/C (second compound 1 µM, first compound 0.316 µM)?
A: The viability, T/C was 112%.

Q: What about the viability, T/C (second compound 1 µM, first compound 1 µM) of the same compound?
A: Its viability, T/C is 92.7%.

Q: What about the viability, T/C (second compound 3.16 µM, first compound 0.00316 µM) of the same compound?
A: The viability, T/C was 99.9%.

Q: What about the viability, T/C (second compound 3.16 µM, first compound 0.01 µM) of the same compound?
A: Its viability, T/C is 87.2%.

Q: What about the viability, T/C (second compound 3.16 µM, first compound 0.0316 µM) of the same compound?
A: Its viability, T/C is 96.1%.

Q: What about the viability, T/C (second compound 3.16 µM, first compound 0.1 µM) of the same compound?
A: The viability, T/C was 88.1%.

Q: What about the viability, T/C (second compound 3.16 µM, first compound 0.316 µM) of the same compound?
A: Its viability, T/C is 101%.

Q: And the viability, T/C (second compound 3.16 µM, first compound 1 µM)?
A: Its viability, T/C is 91.8%.

Q: And the viability, T/C (second compound 10 µM, first compound 0.00316 µM)?
A: Its viability, T/C is 97.4%.

Q: And the viability, T/C (second compound 10 µM, first compound 0.01 µM)?
A: The viability, T/C was 97.4%.

Q: What about the viability, T/C (second compound 10 µM, first compound 0.0316 µM) of the same compound?
A: The viability, T/C was 88.3%.

Q: What about the viability, T/C (second compound 10 µM, first compound 0.1 µM) of the same compound?
A: The viability, T/C was 110%.

Q: And the viability, T/C (second compound 10 µM, first compound 0.316 µM)?
A: The viability, T/C was 102%.

Q: What about the viability, T/C (second compound 10 µM, first compound 1 µM) of the same compound?
A: Its viability, T/C is 101%.

Q: What does the source list for `O=C(c1ccc(F)c(F)c1Nc1ccc(I)cc1F)N1CC(O)([C@@H]2CCCCN2)C1`?
A: viability, T/C (compound 0.00316 µM): 101% and 103% (2×); viability, T/C (compound 0.01 µM): 86.9% and 95% and 94%; viability, T/C (compound 0.0316 µM): 93.7% and 92.9% and 99%; viability, T/C (compound 0.1 µM): 97.5% and 91.4% and 95%; viability, T/C (compound 0.316 µM): 86.5% and 84.5% and 83.9%; viability, T/C (compound 1 µM): 79.9% and 75.1% and 76.9%; IC50 (curve of compound): > 1000 nM
